Assay results from patent US20260174766A1, “COMBINATION OF MENIN INHIBITOR(S) AND IMMUNOPROTEASOME INHIBITOR(S) FOR TREATMENT OF LEUKEMIA” (Medizinische Hochschule Hannover, priority 2022, published 2026).

Tests used:
[1] = tested on: MLLr cell lines; assay: Cell growth (cell counting after trypan blue exclusion) of MLLr cell lines; assay type: cell-based, human; conditions: 50 nM or 100 nM PR-957, 96 hours, vs DMSO; FIG. 1G left
Procedure: (§1) MOLM-13, MONO-MAC-6, THP-1, KOPN-8, ML-2, MV-4;11, OCI-AML3, U-937, KASUMI-1, K-562, HL-60 and LAMA-84 cells were purchased from DSMZ (Braunschweig, Germany). Cas9-Blast cell lines are subclones of the respective cell lines and stably transduced with lentiCas9-Blast (Addgene plasmid #52962). Cells were cultured in RPMI 1640 medium (Thermo Fisher Scientific, Waltham, MA, USA) supplemented with 10-20% FBS (Thermo Fisher Scientific) in a humid atmosphere of 5% CO2 at 37° C. MV4;11 cells harboring Menin-inhibitor resistance mediating mutations of Menin were generated by CRISPR-Cas9 technology.
(§2) Cellular proliferation was assessed by cell counting after trypan blue exclusion. Apoptosis of cells was measured by flow cytometry using Annexin V/SYTOX® Blue staining following the manufacturer's instruction.

[2] = tested on: non-MLLr cell lines; assay: Cell growth (cell counting after trypan blue exclusion) of non-MLLr cell lines; assay type: cell-based, human; conditions: 50 nM or 100 nM PR-957, 96 hours, vs DMSO; FIG. 1G right
Procedure: as §1, §2

[3] = tested on: MLL-AF9 driven leukemia; assay: MLL-AF9 driven murine leukemia, in vivo PR-957 treatment of primary recipients; set-up: species or system mouse
Procedure: For induction of MLL-AF9 (MA9) driven leukemia we used established retroviral MSCV-GFP-based vectors to express MA9 in hematopoietic stem- and progenitor cells (Lineage-negative, Sca1-positive, Kit-positive [LSK] cells). In detail, bone marrow (BM) of LMP7+/+ or LMP7−/− littermates was isolated following standard procedures from 6-12-weeks-old mice. Lineage-depletion was performed using Streptavidin Particles Plus-DM (BD Biosciences, Heidelberg, Germany) and a DynaMag magnet (Thermo Fisher Scientific). Lineage-depleted cells were stained with streptavidin BV421, KIT AF647 and Sca-1 FITC or PE antibodies (all antibodies were received from Biolegend, San Diego, CA, USA) and then used for cell sorting. Sorted LSK cells were pre-stimulated on RetroNectin-coated plates (Takara Bio USA, Inc., Mountain View, CA, USA) in serum-free medium (StemSpan™ SFEM, StemCell Technologies, Vancouver, Canada) supplemented with SCF, TPO, IL-3 and IL-6 (all cytokines from PeproTech, Hamburg, Germany) overnight. 20 hours after stimulation, LSK cells were infected twice (8 hours gap) by spinfection (872 g, 1.5 hours, 33° C.) with retroviral particles containing the oncogenic vectors. Cells were analyzed 48 hours after first infection for GFP-expression using flow cytometry and 7.5×10^4 GFP+ cells were injected into sublethally irradiated (7 Gy, single dose) primary recipient mice (C57BL/6J; females). For serial transplantation of leukemia, 3×10^5 whole bone marrow cells of diseased animals were transplanted into secondary C57BL/6J recipient mice (sublethal irradiation, 7 Gy, single dose). […]
To characterize the effects of LMP7/PSMB8 inhibition in more detail, differentiation following PR-957 treatment was assessed. […]

[4] = tested on: MLL-AF9 driven leukemia; assay: Secondary transplantation of bone marrow from in vivo treated MLL-AF9 mice; set-up: species or system mouse; conditions: p<0.0001
Procedure: For induction of MLL-AF9 (MA9) driven leukemia we used established retroviral MSCV-GFP-based vectors to express MA9 in hematopoietic stem- and progenitor cells (Lineage-negative, Sca1-positive, Kit-positive [LSK] cells). In detail, bone marrow (BM) of LMP7+/+ or LMP7−/− littermates was isolated following standard procedures from 6-12-weeks-old mice. Lineage-depletion was performed using Streptavidin Particles Plus-DM (BD Biosciences, Heidelberg, Germany) and a DynaMag magnet (Thermo Fisher Scientific). Lineage-depleted cells were stained with streptavidin BV421, KIT AF647 and Sca-1 FITC or PE antibodies (all antibodies were received from Biolegend, San Diego, CA, USA) and then used for cell sorting. […] Cells were analyzed 48 hours after first infection for GFP-expression using flow cytometry and 7.5×10^4 GFP+ cells were injected into sublethally irradiated (7 Gy, single dose) primary recipient mice (C57BL/6J; females). […]
To characterize the effects of LMP7/PSMB8 inhibition in more detail, differentiation following PR-957 treatment was assessed. […] Next, the frequency of L-GMP (Lin− c-kit+ Sca1− CD34+ FcgR+) was assessed by flow cytometry, which have been described as the functionally relevant LSC population in MLL-AF9 driven leukemia. […]

SMILES: COc1ccc(C[C@H](NC(=O)[C@H](C)NC(=O)CN2CCOCC2)C(=O)N[C@@H](Cc2ccccc2)C(=O)[C@]2(C)CO2)cc1 [PR-957, (2S)-3-(4-methoxyphenyl)-N-[(2S)-1-[(2S)-2-methyloxiran-2-yl]-1-oxo-3-phenylpropan-2-yl]-2-[[(2S)-2-[(2-morpholin-4-ylacetyl)amino]propanoyl]amino]propanamide]
- cell growth in MLLr cell lines [1]: dose-dependent and specific reduction of cell growth
- cell growth in non-MLLr cell lines [2]: largely unaffected
- leukemic cells in the peripheral blood and spleen size ([3]; 6 mg/kg i.v. QD 3 weeks (5 days per week), 3 days after discontinuation, vs diluent, FIG. 2B,C): reduced compared to diluent treated controls
- abundance of leukemic cells in the bone marrow ([3]; 6 mg/kg i.v. QD 3 weeks (5 days per week), control 69.8%, FIG. 2D): 42.9%
- frequency of L-GMP populations ([3]; 6 mg/kg i.v. QD 3 weeks, diluent control 3.57+/-0.52%, p=0.0087, FIG. 2E): 2.25+/−0.8%
- median survival of secondary recipients ([4]; recipients of PR-957 treated cells, control 21 days, FIG. 2G): 39.5 days
- leukemic cells in the peripheral blood (GFP+ WBC) of secondary recipients ([4]; two weeks after transplantation of bone marrow of treated mice, FIG. 2F): 1.6 Gpt/L
